Data as given in US5043328A, “Formulations containing unsaturated fatty acids for the synthesis of prostaglandins and hydroxy-fatty acids in biological systems” (priority 1986, dated 1991).
Like-named read-outs stand apart in the source and are kept apart here. No end group written: not given here.

Biological target: T1, enzyme (from seminal vesicles of sheep) (Ovis aries, UniProt P05979)
T1 sequence (P05979 25-600): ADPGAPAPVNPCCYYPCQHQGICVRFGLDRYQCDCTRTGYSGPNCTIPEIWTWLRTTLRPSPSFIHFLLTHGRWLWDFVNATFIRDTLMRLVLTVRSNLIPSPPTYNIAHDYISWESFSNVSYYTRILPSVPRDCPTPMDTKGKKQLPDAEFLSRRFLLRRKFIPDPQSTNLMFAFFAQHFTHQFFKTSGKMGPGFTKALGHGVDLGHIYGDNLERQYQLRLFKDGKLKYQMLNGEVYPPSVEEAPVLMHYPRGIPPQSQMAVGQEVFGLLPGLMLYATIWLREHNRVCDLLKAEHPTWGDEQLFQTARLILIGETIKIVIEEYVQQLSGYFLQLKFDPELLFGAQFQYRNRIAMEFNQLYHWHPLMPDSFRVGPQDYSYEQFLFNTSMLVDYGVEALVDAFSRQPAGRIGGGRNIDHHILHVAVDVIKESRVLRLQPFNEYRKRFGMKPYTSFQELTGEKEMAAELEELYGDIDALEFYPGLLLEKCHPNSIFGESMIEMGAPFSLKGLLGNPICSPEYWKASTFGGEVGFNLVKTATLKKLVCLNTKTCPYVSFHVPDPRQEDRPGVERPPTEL
Conditions: for stimulation of prostaglandin synthesis with much smaller quantities of undesired byproducts: mixtures with polyunsaturated fatty acids such as arachidonic acid
Experimental: Method 2: Prostaglandin Synthesis
0.3 ml of 0.03M potassium phosphate buffer of pH=8.0 contains 0.5 mg of enzyme (from seminal vesicles of sheep) (Biochemistry 10 (1971) 2372) or homogenate of the inner kidney medulla (Life Sciences 26 (1980) 765), 2.75 μg of ^14 C-arachidonic acid (0.5 μCi) and 0.5 mg of stimulator, and, if appropriate, 0.5 mg of stabilizer substance (see Table 1). After 10 minutes' incubation at 37° C., the reaction is stopped with 0.05 ml of 1.2M citric acid and the mixture is extracted with twice 0.5 ml of ethyl acetate, the combined extracts are freed of solvent, and the residue is dissolved in 0.2 ml of methanol, diluted 1:1 with water and separated by HPLC (nucleosil C-18 column, 125×4.6 mm, from Bischoff, Leonberg, Germany, solvent 300 ml of acetonitrile, 700 ml of water and 1 ml of glacial acetic acid and after 30 minutes pure methanol). The separation of the radioactive fractions is followed by a monitor (LB 504 from Berthold, Wildbad, Germany). The products formed, such as 6-keto-prostaglandin F2alpha, prostaglandin E2, prostaglandin F2alpha and prostaglandin D2, are separated under these conditions.
The prostaglandins PGE2, PGF2 alpha and PGD2 as products from arachidonic acid where quantified by means of method 2, and the sum was related as "total prostaglandin" to 100%. The quantity of "total prostaglandin" formed without the addition of a stimulator was set at f=1; the quantity formed after stimulation was related thereto. f=2 or f=3 therefore means twice or three times the stimulation under the conditions of method 2. The stability of the sample was investigated by means of method 1 (right-hand column). […] Values greater than 25-28% therefore represent a stabilization, and values smaller than 25-28% represent a destabilization. Example No. 1 was carried out without a stimulator. […] The substances test with respect to stabilization (see Method 1 for quantities) were: A) aqueous solution without stabilizer addition, B) ethanolic solution without further addition, C) pyridine solution, D) with rutin, predissolved in dimethyl sulfoxide, dimethyl sulfoxide then stripped off, E) like B) with lecithin, ethanol stripped off, F) like A) with cytochrome c from horse heart (from Boehringer, Mannheim, Germany), G) like A) with methemoglobin (human) (from Sigman, Munich, Germany), H) like A) with bovine serum albumin (from Calbiochem, Frankfurt, Germany), J) like A) or B), but solvent stripped off, K) like J) with cytochrome c, L) like J) with hemoglobin (human) (from Behringwerke, Marburg, Germany), and M) like J) with human serum albumin (from Behringwerke, Marburg, Germany).

[1] = seminal vesicle enzyme, 10 min, pH 8
[2] = Table 1, share of total prostaglandin (=100%)
[3] = Table 2, share of total prostaglandin
[4] = Table 1, 0.5 mg stimulator, 10 min 37° C., without stimulator f=1

| Molecule | relative total prostaglandin f [1] | PGD2 % [2] [%] | PGE2 % [2] [%] | PGF2alpha % [2] [%] | further results |
| --- | --- | --- | --- | --- | --- |
| O=C(O)CCCC[C@@H](S)CCS (racemic) [Example 42, Dihydrolipoic acid, reference compound] | 1.0 | – | – | – | stimulation of prostaglandin synthesis with much smaller quantities of undesired byproducts (result in words): not possible to achieve these advantageous effects |
| Cc1cccc(O)c1 [Example 2, m-cresol, reference compound] | – | 2 | 98 | 0 | – |
| Oc1ccccc1 [Example 3, phenol, reference compound] | – | 18 | 77 | 5 | – |
| N[C@@H](Cc1ccccc1)C(=O)O [Example 4, L-phenylalanine, reference compound] | – | 18 | 80 | 2 | – |
| NCCc1ccc(O)cc1 [Example 7] | 4,0 | 17 | 80 | 3 | – |
| O=C(O)CCc1ccc(O)cc1 [Example 8] | – | 16 | 83 | 1 | – |
| NC(Cc1ccc(O)c(O)c1)C(=O)O (stereo not shown) [Example 9] | 9.4 | 16 | 70 | 14 | – |
| NCC(O)c1ccc(O)c(O)c1 (stereo not shown) [Example 12] | 8.3 | 17 | 66 | 17 | – |
| CNCC(O)c1ccc(O)c(O)c1 (stereo not shown) [Example 13] | – | 18 | 70 | 12 | – |
| Oc1ccc(O)cc1 [Example 14] | – | 19 | 69 | 12 | – |
| COc1cc(C(=O)O)ccc1O [Example 15] | – | 17 | 71 | 12 | – |
| O=C(O)c1ccc(O)cc1 [Example 16] | – | 18 | 69 | 13 | – |
| NC(Cc1c[nH]c2ccccc12)C(=O)O (stereo not shown) [Example 18] | 9.8 | 21 | 76 | 3 | – |
| NC(Cc1c[nH]c2ccc(O)cc12)C(=O)O (stereo not shown) [Example 19] | 10.1 | 18 | 79 | 3 | – |
| O=C(O)CCc1c[nH]c2ccccc12 [Example 20] | – | 16 | 82 | 2 | – |
| N[C@H](CS)C(=O)O [Example 34, D-cysteine] | – | 23 | 63 | 14 | – |
| CC(=O)NC(CS)C(=O)O (stereo not shown) [Example 37, NAcetylcysteine] | – | 25 | 61 | 14 | – |
| O[C@H](CS)[C@H](O)CS [Example 39, Dithiothreitol, reference compound] | 0.8 | – | – | – | stimulation of prostaglandin synthesis with much smaller quantities of undesired byproducts (result in words): not possible to achieve these advantageous effects |
| O[C@H](CS)[C@@H](O)CS [Example 40, Dithioerythritol, reference compound] | 0.85 | – | – | – | stimulation of prostaglandin synthesis with much smaller quantities of undesired byproducts (result in words): not possible to achieve these advantageous effects |
| N[C@@H](CSSC[C@H](N)C(=O)O)C(=O)O [Example 41, Cystine, reference compound] | 1.0 | 15 | 85 | 0 | stimulation of prostaglandin synthesis with much smaller quantities of undesired byproducts (result in words): not possible to achieve these advantageous effects |

| Molecule | relative total prostaglandin f [1] | PGD2 % [2] [%] | PGE2 % [2] [%] | PGF2alpha % [2] [%] | further results |
| --- | --- | --- | --- | --- | --- |
| NCCS [Example 43, Cysteamine, reference compound] | 0.9 | – | – | – | stimulation of prostaglandin synthesis with much smaller quantities of undesired byproducts (result in words): not possible to achieve these advantageous effects |
| CC(C)(COP(=O)(O)OP(=O)(O)OC[C@H]1O[C@@H](n2cnc3c(N)ncnc32)[C@H](O)[C@@H]1OP(=O)(O)O)[C@@H](O)C(=O)NCCC(=O)NCCS [Example 45, Coenzyme A, reference compound] | 1.0 | – | – | – | stimulation of prostaglandin synthesis with much smaller quantities of undesired byproducts (result in words): not possible to achieve these advantageous effects |
| CC(C)(CO)[C@@H](O)C(=O)NCCC(=O)NCCS [Example 46, Pantetheine, reference compound] | 0.95 | – | – | – | stimulation of prostaglandin synthesis with much smaller quantities of undesired byproducts (result in words): not possible to achieve these advantageous effects |
| CC1=C(C)C(=O)C(CC[C@](C)(O)CCC[C@H](C)CCC[C@H](C)CCCC(C)C)=C(C)C1=O [Example 51, D-alpha-Tocopheryl-quinone] | – | – | – | – | PGD2 % [3]: 15%; PGE2 % [3]: 80%; PGF2alpha % [3]: 5% |
| C[C@@H]1O[C@@H](OC[C@H]2O[C@@H](Oc3c(-c4ccc(O)c(O)c4)oc4cc(O)cc(O)c4c3=O)[C@H](O)[C@@H](O)[C@@H]2O)[C@H](O)[C@H](O)[C@H]1O [Example 52, Rutin] | 6 | – | – | – | PGD2 % [3]: 18%; PGE2 % [3]: 76%; PGF2alpha % [3]: 6% |
| O=c1c(O)c(-c2ccc(O)c(O)c2)oc2cc(O)cc(O)c12 [Example 57, Quercetin] | 0.3 | – | – | – | PGD2 % [3]: 10%; PGE2 % [3]: 72%; PGF2alpha % [3]: 18% |
| Oc1cc(O)c2c(c1)OC(c1ccc(O)c(O)c1)C(O)C2 (stereo not shown) [Example 58, Catechin] | – | – | – | – | PGD2 % [3]: 12%; PGE2 % [3]: 70%; PGF2alpha % [3]: 18% |
| O=C(CCc1ccc(O)cc1)c1c(O)cc(O)cc1O [Example 60, Phloretin] | – | – | – | – | PGD2 % [3]: 13%; PGE2 % [3]: 76%; PGF2alpha % [3]: 11% |
| O=c1c(O)c(-c2ccc(O)cc2O)oc2cc(O)cc(O)c12 [Example 61, Morin] | – | – | – | – | PGD2 % [3]: 19%; PGE2 % [3]: 54%; PGF2alpha % [3]: 27% |
| N[C@@H](CS)C(=O)O [cysteine] | – | – | – | – | stimulation of prostaglandin synthesis with much smaller quantities of undesired byproducts (result in words): stimulated |
| N[C@@H](CCS)C(=O)O [homocysteine] | – | – | – | – | stimulation of prostaglandin synthesis with much smaller quantities of undesired byproducts (result in words): stimulated |
| GlyTrpGly [Example 25] | – | 20 | 79 | 1 | relative total prostaglandin f [4]: 13.0 |
| LeuTrp [Example 27] | – | 22 | 77 | 1 | relative total prostaglandin f [4]: 17.0 |
| LeuTrpMet [Example 29] | – | 22 | 69 | 9 | relative total prostaglandin f [4]: 10.8 |
| TrpAla [Example 26] | – | 22 | 77 | 1 | relative total prostaglandin f [4]: 12.6 |
| TrpTrp [Example 24] | – | 23 | 75 | 2 | relative total prostaglandin f [4]: 11.7 |
| TyrTrp [Example 31] | – | 14 | 73 | 3 | relative total prostaglandin f [4]: 6.3 |
| TyrTyrTyrOCH3 [Example 30] | – | 11 | 75 | 4 | relative total prostaglandin f [4]: 5.3 |
| YCEHFRWG [Example 38] | – | – | – | – | Stimulation (Table 1, result in words): positive |
